pIC50: −log10 of the molar value.
Target: T1, synthetic Aβ 1-40 (Homo sapiens, UniProt P05067)
T1 construct: using synthetic Aβ 1-40 in 2.7 nM of [^3H]PIB
Assay: Competition binding assay
Details: [3H]PIB as radioligand (2.7 nM), synthetic Aβ 1-40, phosphate buffer pH 7.5, 30 min room temperature; read-out: IC50 in the competion binding assay
Method: Competition binding was performed in 384-well FB filter plates using synthetic Aβ 1-40 in 2.7 nM of [^3H]PIB (or another ^3H-labeled radioligand when so mentioned) in phosphate buffer at pH 7.5, by adding various concentrations of non-radioactive compounds originally dissolved in DMSO. The binding mixture was incubated for 30 min at room temperature, followed by vacuum filtration, and subsequently by washing twice with 1% Triton-X100. Scintillation fluid was thereafter added to the collected Aβ 1-40 on the filter plate, and the activity of the bound remaining radioligand ([^3H]PIB or another ^3H-labeled radioligand) was measured using 1450 Microbeta from PerkinElmer. Specific binding was determined according to the competion binding assay described herein. The determined IC50's in the competion binding assays (using [^3H]PIB as radioligand) of […] of the present invention are shown in Table 1.

T1 sequence (P05067 672-711 limits assumed): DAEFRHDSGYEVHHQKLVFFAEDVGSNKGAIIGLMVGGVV

Row | SMILES | pIC50
1 | CNc1ccc(-c2cn3cc(C(=O)OCCF)ccc3n2)cn1 [Example 22, 2-Fluoroethyl 2-(6-methylaminopyridin-3-yl)imidazo[2,1-t]pyridine-6-carboxylate] | 6.33
2 | COc1ccc2nc(-c3ccc(OC)nc3)cn2c1 [Example 5, 6-Methoxy-2-(6-methoxypyridin-3-yl)imidazo[1,2-a]pyridine] | 5.55
3 | COc1ccc2nc(-c3ccc(N(C)C)nc3)cn2c1 [Example 3, 5-(6-Methoxyimidazo[1,2-a]pyridin-2-yl)-N,N-dimethylpyridin-2-amine] | 6.41
4 | O=C(OCCF)c1ccc2nc(-c3ccc(F)nc3)cn2c1 [Example 18, 2-Fluoroethyl 2-(6-fluoropyridin-3-yl)imidazo[2,1-f]pyridine-6-carboxylate] | 4.75
5 | COc1ccc2nc(-c3ccc4[nH]ccc4c3)cn2c1 [Example 11, 2-(1H-Indol-5-yl)-6-methoxyimidazo[1,2-a]pyridine] | 6.74
6 | CN(C)c1ccc(-c2cn3cc(O)ccc3n2)cn1 [Example 4, 2-[6-(Dimethylamino)pyridin-3-yl]imidazo[1,2-a]pyridin-6-ol] | 6.90
7 | COc1ccc2nc(-c3ccc(C(N)=O)nc3)cn2c1 [Example 16, 5-(6-Methoxyimidazo[1,2-a]pyridin-2-yl)pyridine-2-carboxamide] | 5.64
8 | CNc1ccc(-c2cn3cc(C(=O)OC)ccc3n2)cn1 [Example 21, Methyl 2-(6-methylaminopyridin-3-yl)imidazo[2,1-f]pyridine-6-carboxylate] | 6.02
9 | COc1ccc2nc(-c3cnc(OC)c(F)c3)cn2c1 [Example 6, 2-(5-Fluoro-6-methoxypyridin-3-yl)-6-methoxyimidazo[1,2-a]pyridine] | 6.08
10 | COc1ccc2nc(-c3ccc(N4CCN(C(=O)OC(C)(C)C)CC4)nc3)cn2c1 [Example 9, tert-Butyl 4-[5-(6-methoxyimidazo[1,2-c]pyridin-2-yl)pyridin-2-yl]piperazine-1-carboxylate] | 5.86
11 | CN(C)c1ccc(-c2cn3cc(C(=O)OCCF)ccc3n2)cn1 [Example 20, 2-Fluoroethyl 2-(6-dimethylaminopyridin-3-yl)imidazo[2,1-f]pyridine-6-carboxylate] | 4.78
12 | COc1ccc2nc(-c3cnc(OC)c(Cl)c3)cn2c1 [Example 7, 2-(5-Chloro-6-methoxypyridin-3-yl)-6-methoxyimidazo[1,2-a]pyridine] | 6.15
13 | NC(=O)c1ccc(-c2cn3cc(O)ccc3n2)cn1 [Example 17, 5-(6-Hydroxyimidazo[1,2-a]pyridin-2-yl)pyridine-2-carboxamide] | 5.55
14 | COC(=O)c1ccc2nc(-c3ccc(N(C)C)nc3)cn2c1 [Example 19, Methyl 2-(6-dimethylaminopyridin-3-yl)imidazo[2,1-f]pyridine-6-carboxylate] | 6.13
15 | COc1ccc2nc(-c3cnc(N4CCOCC4)nc3)cn2c1 [Example 10, 6-Methoxy-2-(2-morpholin-4-ylpyrimidin-5-yl)imidazo[1,2-a]pyridine] | 5.80
16 | CNc1ccc(-c2cn3cc(O)ccc3n2)cn1 [Example 2, 2-[6-(Methylamino)pyridin-3-yl]imidazo[1,2-a]pyridin-6-ol] | 6.43
17 | CNc1ccc(-c2cn3cc(OC)ccc3n2)cn1 [Example 1, 5-(6-Methoxyimidazo[1,2-a]pyridin-2-yl)-N-methylpyridin-2-amine] | 5.61
18 | COc1ccc2nc(-c3ccc(N4CCNCC4)nc3)cn2c1 [Example 8, 6-Methoxy-2-(6-piperazin-1-ylpyridin-3-yl)imidazo[1,2-a]pyridine] | 5.08

Source: patent US20100092385A1, “Novel Heteroaryl Substituted Imidazo [1,2-A] Pyridine Derivatives” (ASTRAZENECA AB, priority 2007, published 2010)
